Results published in patent EP4755881A1 (Wuhan Createrna Science and Technology Co., Ltd., priority 2023, dated 2025).
Read-outs that look alike come from different tables or passages of the source. One block for each molecule: values may come before it.

Assays:
[1] = Pharmacokinetic study in rats (oral gavage and tail vein injection, plasma LC-MS/MS); assay type: in vivo; conditions: rat; for Cmax: read-out: Cmax
How it was run: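 Male SD rats (200–250 g) are dosed orally (fasted; 5% DMSO/5% ethanol/60% PEG400/30% saline) or by tail-vein injection (10% ethanol/20% water/70% PEG400). Plasma sampled up to 24 h is analysed by LC-MS/MS. Non-compartmental analysis yields Cmax, C0, Tmax, AUC and T1/2.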

[2] = molecular target: hLPAR1 (human lysophosphatidic acid receptor 1, Accession No.: NM_001401.4) (Homo sapiens, UniProt Q92633); assay: cell-based; conditions: FLIPR method, CHO-K1 cells overexpressing hLPAR1
How it was run: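 Antagonist mode in CHO-K1 cells stably expressing hLPAR1, Fluo-4 loaded; compound preincubated 30 min at room temperature before 1 µM oleoyl-LPA (final) challenge.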

LPAR1 receptor = molecular target: T1, LPAR1 receptor (Homo sapiens, UniProt Q92633); assay: LPAR1 in vitro biological activity evaluation 2: HTRF cAMP kit (LANCE Ultra cAMP Kit) assay in CHO stable transfected cell line expressing the LPAR1 receptor; assay type: cell-based; conditions: Table 2, read-out: LPAR1 inhibitory activity IC50
T1 construct: expressed in transfected cells
Procedure: The inhibitory effects of the compounds of the present disclosure on the LPAR1 receptor were determined using a Chinese hamster ovary (CHO) stable transfected cell line expressing the LPAR1 receptor, through the HTRF cAMP kit (LANCE® Ultra cAMP Kit).
The CHO cell line expressing the LPAR1 receptor was cultured in F-12 medium (Gibco, 117650054) containing 10% fetal bovine serum (FBS, Avantor, 76294-180) and 0.2 mg/mL hygromycin B (Solarbio, H8080-1g) at 37°C with 5% CO2. Cell passage, recovery, and cryopreservation were performed according to conventional methods. The stable transfected cell line was cultured to 80% confluence, digested with trypsin to collect cells, counted, and then seeded at 5 µL/well in a 384-well plate (500 cells/5 µL). The 1× Stimulation Buffer was prepared according to the instructions of the kit (LANCE® Ultra cAMP Kit). 1 µL of the test compound solution (diluted to 10× with 1× Stimulation Buffer) was added to the corresponding experimental wells, followed by centrifugation and incubation at 37°C for 10 minutes. […] 5 µL/well of Eu-cAMP (diluted with Detection buffer) was added to the corresponding experimental wells. 5 µL/well of ULight™-anti-cAMP antibody (diluted with Detection buffer) was added to the corresponding experimental wells, followed by centrifugation and incubation at room temperature for 1 hour. After the incubation was completed, the readings at 665 nm and 620 nm under 330 nm excitation were detected using the HTS high-throughput drug screening multifunctional microplate reader (BMG, PHERAstar FSX). The IC50 values were calculated by fitting nonlinear regression (dose response - variable slope) using GraphPad Prism software.

[3] = Table 1, read-out: LPAR1 inhibitory activity IC50

T1 sequence (Q92633 whole entry): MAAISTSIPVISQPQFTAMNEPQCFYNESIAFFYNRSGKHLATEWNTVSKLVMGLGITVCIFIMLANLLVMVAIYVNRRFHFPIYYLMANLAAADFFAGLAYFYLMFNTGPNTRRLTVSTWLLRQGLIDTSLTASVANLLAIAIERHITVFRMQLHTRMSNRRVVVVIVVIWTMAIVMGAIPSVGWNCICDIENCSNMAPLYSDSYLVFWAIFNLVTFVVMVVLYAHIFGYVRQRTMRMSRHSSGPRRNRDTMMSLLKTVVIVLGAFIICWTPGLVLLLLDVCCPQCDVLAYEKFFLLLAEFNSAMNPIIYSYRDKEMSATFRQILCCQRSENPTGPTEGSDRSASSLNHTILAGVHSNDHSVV
hLPAR1 (human lysophosphatidic acid receptor 1, Accession No.: NM_001401.4), sequence (Q92633 whole entry): as above

SMILES: Cc1nc(-c2nnn(C)c2NC(=O)O[C@H](C)CC(C)(C)F)ccc1C#CC1(CC(=O)O)CC1 [compound 263]
AUC(0-t) ([1]; SD rats, Iv, 1 mg/kg): 3000 to 5000 ng·h/mL | half-life ([1]; SD rats, Iv, 1 mg/kg): 13.8 h | Cmax ([1]; SD rats, Iv, 1 mg/kg): 800 to 5000 ng/mL | AUC(0-t) ([1]; SD rats, Po, 1 mg/kg): 5000 to 10000 ng·h/mL | half-life ([1]; SD rats, Po, 1 mg/kg): 10.2 h | Cmax ([1]; SD rats, Po, 1 mg/kg): 200 to 800 ng/mL | IC50 ([2]; LPAR1 inhibitory activity IC50, Table 1): 52.8 nM

SMILES: CCC(F)(F)[C@@H](C)OC(=O)Nc1c(C)noc1-c1ccc(C#CC2(CC(=O)O)CC2)c(C)n1 [compound 277]
IC50 (LPAR1 receptor): 26.6 nM

SMILES: Cc1nc(-c2nnn(C)c2NC(=O)O[C@H](C)CC(C)C)ccc1C#C[C@@H]1CC(F)(F)C[C@H]1C(=O)O [compound 299]
IC50 (LPAR1 receptor): 13.6 nM

SMILES: CCC[C@@H](C)OC(=O)Nc1c(-c2ccc(C#C[C@@H]3CCC[C@H]3C(=O)O)c(C)n2)nnn1C [compound 305]
IC50 (LPAR1 receptor): 91.2 nM

SMILES: CCC(F)(F)[C@@H](C)OC(=O)Nc1c(-c2ccc(C#CC3(CC(=O)O)CCC3)c(C)n2)nnn1C [compound 323]
IC50 (LPAR1 receptor): 14.8 nM

SMILES: Cc1nc(-c2nnn(C)c2NC(=O)O[C@H](C)CC(C)(F)F)ccc1C#CC1(CC(=O)O)CCC1 [compound 324]
half-life ([1]; male, SD, iv, 1 mg/kg): 12.1 h | half-life ([1]; male, SD, po, 1 mg/kg): 5.73 h | AUC(0-t) ([1]; male, SD rats, Iv, 1 mg/kg): 3000 to 5000 ng·h/mL | Cmax ([1]; male, SD rats, Iv, 1 mg/kg): 800 to 5000 ng/mL | AUC(0-t) ([1]; male, SD rats, Po, 1 mg/kg): 5000 to 10000 ng·h/mL | Cmax ([1]; male, SD rats, Po, 1 mg/kg): 800 to 5000 ng/mL | IC50 [2, 3]: 50.3 nM

SMILES: Cc1nc(-c2noc(C)c2NC(=O)O[C@H](C)CC(C)(F)F)ccc1C#CC1(CC(=O)O)CC1 [compound 334]
IC50 (LPAR1 receptor): 107 nM

SMILES: CCC(F)(F)[C@@H](C)OC(=O)Nc1c(C)noc1-c1ccc(C#CC2(CC(=O)O)CC2)c(CF)n1 [compound 335]
IC50 (LPAR1 receptor): 113 nM

SMILES: Cc1nc(-c2nnn(C)c2NC(=O)O[C@H](C)c2ccccc2)ccc1C#C[C@@H]1CCC[C@H]1C(=O)O [compound 402]
IC50 (LPAR1 receptor): 47.2 nM

SMILES: CCC[C@@H](C)OC(=O)Nc1c(-c2ccc(C#CC3(CC(=O)O)CC(OCC)C3)c(C)n2)nnn1C (some centres unmarked) [compound 427]
IC50 (LPAR1 receptor): 59 nM

SMILES: Cc1nc(-c2nnn(C)c2NC(=O)O[C@H](C)C23CC(C2)C3)ccc1C#CC1(CC(=O)O)CC(F)(F)C1 [compound 432]
IC50 (LPAR1 receptor): 16.6 nM

SMILES: CCC(F)(F)[C@@H](C)OC(=O)Nc1c(-c2ccc(C#CC3(CC(=O)O)CC4(CC4)C3)c(C)n2)nnn1C [compound 449]
IC50 (LPAR1 receptor): 5.6 nM

Further lines, results first:

half-life ([1]; male, SD, iv, 0.63 mg/kg): 7.81 h | half-life ([1]; male, SD, po, 1 mg/kg): 8.5 h | AUC(0-t) ([1]; male, SD rats, Iv, 0.63 mg/kg): 1200 to 3000 ng·h/mL | Cmax ([1]; male, SD rats, Iv, 0.63 mg/kg): 800 to 5000 ng/mL | AUC(0-t) ([1]; male, SD rats, Po, 1 mg/kg): 3000 to 5000 ng·h/mL | Cmax ([1]; male, SD rats, Po, 1 mg/kg): 200 to 800 ng/mL | IC50 [2, 3]: 21.5 nM
SMILES: Cc1nc(-c2nnn(C)c2NC(=O)O[C@H](C)C(F)(F)C(C)C)ccc1C#CC1(CC(=O)O)CC1 [compound 265]

IC50 (LPAR1 receptor): 190 nM
SMILES: Cc1nc(-c2nnn(C)c2NC(=O)O[C@H](C)CC(C)C)ccc1C#C[C@@H]1C[C@H]1C(=O)O [compound 290]

IC50 (LPAR1 receptor): 195 nM
SMILES: Cc1nc(-c2nnn(C)c2NC(=O)OC(C)C23CC(C2)C3)ccc1C#C[C@@H]1C[C@H]1C(=O)O (some centres unmarked) [compound 294]

IC50 (LPAR1 receptor): 83.8 nM
SMILES: Cc1nc(-c2nnn(C)c2NC(=O)OC(C)C23CC(C2)C3)ccc1C#C[C@@H]1CC[C@H]1C(=O)O (some centres unmarked) [compound 296]

IC50 (LPAR1 receptor): 134 nM
SMILES: CCC[C@@H](C)OC(=O)Nc1c(-c2ccc(C#C[C@@H]3CC(F)(F)C[C@H]3C(=O)O)c(C)n2)nnn1C [compound 304]

IC50 (LPAR1 receptor): 83.9 nM
SMILES: Cc1nc(-c2onc(C)c2NC(=O)O[C@H](C)CC(C)(F)F)ccc1C#C[C@@H]1CC[C@H]1C(=O)O [compound 340]

IC50 (LPAR1 receptor): 63.2 nM
SMILES: CCOC1CC(C#Cc2ccc(-c3nnn(C)c3NC(=O)O[C@H](C)CC(C)(F)F)nc2C)(CC(=O)O)C1 (some centres unmarked) [compound 430]

IC50 (LPAR1 receptor): 6.8 nM
SMILES: Cc1nc(-c2nnn(C)c2NC(=O)O[C@H](C)CC(C)(F)F)ccc1C#CC1(CC(=O)O)CC2(CC2)C1 [compound 448]
